B1: Steryl-sulfatase (Homo sapiens), P08842 (protein)
chain: MPLRKMKIPFLLLFFLWEAESHAASRPNIILVMADDLGIGDPGCYGNKTIRTPNIDRLASGGVKLTQHLAASPLCTPSRAAFMTGRYPVRSGMASWSRTGVFLFTASSGGLPTDEITFAKLLKDQGYSTALIGKWHLGMSCHSKTDFCHHPLHHGFNYFYGISLTNLRDCKPGEGSVFTTGFKRLVFLPLQIVGVTLLTLAALNCLGLLHVPLGVFFSLLFLAALILTLFLGFLHYFRPLNCFMMRNYEIIQQPMSYDNLTQRLTVEAAQFIQRNTETPFLLVLSYLHVHTALFSSKDFAGKSQHGVYGDAVEEMDWSVGQILNLLDELRLANDTLIYFTSDQGAHVEEVSSKGEIHGGSNGIYKGGKANNWEGGIRVPGILRWPRVIQAGQKIDEPTSNMDIFPTVAKLAGAPLPEDRIIDGRDLMPLLEGKSQRSDHEFLFHYCNAYLNAVRWHPQNSTSIWKAFFFTPNFNPVGSNGCFATHVCFCFGSYVTHHDPPLLFDISKDPRERNPLTPASEPRFYEILKVMQEAADRHTQTLPEVPDQFSWNNFLWKPWLQLCCPSTGLSCQCDREKQDKRLSR

Experiments:
[1] = target: T1, Steryl-sulfatase (Homo sapiens) (UniProt P08842); experiment: Inhibitory potency against recombinant human steroid sulfatase relative to compound 3 = 1
T1 sequence (whole entry): B1 chain

[2] = target: T1, Steryl-sulfatase (Homo sapiens); experiment: kcat value was determined
[3] = target: T1, Steryl-sulfatase (Homo sapiens)
Description: Tested for relative inhibitory potency against recombinant human steroid sulfatase

[4] = compound: C[C@]12CC[C@@H]3c4ccc(OS(N)(=O)=O)cc4CC[C@H]3[C@@H]1CCC2=O; experiment: (§1) Tested for inhibitory potency against recombinant human steroid sulfatase
[5] = compound: Cc1cc(=O)oc2cc(OS(N)(=O)=O)ccc12; experiment: as §1
[6] = compound: O=c1oc2cc(OS(=O)(=O)O)ccc2c2ccccc12; experiment: as §1

Molecule	rIC50 [1]	further results
NS(=O)(=O)Oc1ccc2c(c1)oc(=O)c1c3ccccc3oc21	5	–
NS(=O)(=O)Oc1ccc2cc(-c3nc4ccccc4s3)c(=O)oc2c1	> 250	–
NS(=O)(=O)Oc1ccc2c(c1)oc(=O)c1ccccc12	3	–
Cc1cc(=O)oc2cc(OS(N)(=O)=O)ccc12	30	–
O=c1oc2cc(OS(=O)(=O)O)ccc2c2ccccc12	–	k cat [2]: 0.24 s⁻¹
NS(=O)(=O)Oc1ccc2cc(-c3ccccc3)c(=O)oc2c1	48	–
Cc1c(-c2ccccc2)c(=O)oc2cc(OS(N)(=O)=O)ccc12	11	–
C[C@]12CC[C@@H]3c4ccc(OS(N)(=O)=O)cc4CC[C@H]3[C@@H]1CCC2=O	–	rIC50 [3]: 1
NS(=O)(=O)Oc1ccc2c(c1)oc(=O)c1c3ccc(O)cc3oc21	3.5	–
NS(=O)(=O)Oc1ccc2c(c1)oc1c3ccccc3oc(=O)c21	> 160	–
Cc1c(-c2ccccc2)c(=O)oc2ccc(OS(N)(=O)=O)cc12	> 250	–
B1	–	Km [4]: 95 µM; Km [5]: 275 µM; Km [6]: 22.5 µM

From ChEMBL document CHEMBL1133359, “New fluorogenic substrate for the first continuous steroid sulfatase assay” (Bioorg Med Chem Lett, 2000)
